Results: patent publication US20250034216A1, “STEREOSELECTIVE COVALENT LIGANDS FOR ONCOGENIC AND IMMUNOLOGICAL PROTEINS” (The Scripps Research Institute, priority 2021, published 2025)

What was measured:
Assay in all cases: IA-DTB cysteine engagement
Type in all cases: binding
Settings in all cases: 22Rv1 cells, 20 μM probe, 1 h, relative to DMSO
NSUN3_C298 = biological target: T1, NSUN3_C298 (Homo sapiens, UniProt Q9H649)
T1 construct: endogenous in cells; host or cells: 22Rv1
T1 sequence (Q9H649 1-340): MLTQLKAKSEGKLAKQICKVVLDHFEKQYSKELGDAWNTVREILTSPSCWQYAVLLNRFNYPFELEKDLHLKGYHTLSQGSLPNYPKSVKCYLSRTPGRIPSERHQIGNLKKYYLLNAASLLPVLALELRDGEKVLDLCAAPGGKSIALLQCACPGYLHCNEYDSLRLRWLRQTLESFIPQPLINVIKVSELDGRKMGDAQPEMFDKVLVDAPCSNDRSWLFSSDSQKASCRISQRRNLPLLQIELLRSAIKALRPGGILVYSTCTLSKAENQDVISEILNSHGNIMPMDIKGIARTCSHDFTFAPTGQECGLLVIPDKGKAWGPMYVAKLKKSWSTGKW
How it was run: (§1)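 Cells were treated in situ with electrophilic probes, then lysed, and the lysates (2 mg/mL protein) were labeled with IA-DTB for 1 h at ambient temperature. After reduction, alkylation and trypsin digestion, labeled peptides were streptavidin-enriched, TMT-labeled and fractionated. Engagement ratios are probe vs DMSO reporter intensities, averaged across replicates.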

CYP27B1_C163 = biological target: T2, CYP27B1_C163 (Homo sapiens, UniProt O15528)
T2 construct: endogenous in cells; host or cells: 22Rv1
T2 sequence (O15528 1-508): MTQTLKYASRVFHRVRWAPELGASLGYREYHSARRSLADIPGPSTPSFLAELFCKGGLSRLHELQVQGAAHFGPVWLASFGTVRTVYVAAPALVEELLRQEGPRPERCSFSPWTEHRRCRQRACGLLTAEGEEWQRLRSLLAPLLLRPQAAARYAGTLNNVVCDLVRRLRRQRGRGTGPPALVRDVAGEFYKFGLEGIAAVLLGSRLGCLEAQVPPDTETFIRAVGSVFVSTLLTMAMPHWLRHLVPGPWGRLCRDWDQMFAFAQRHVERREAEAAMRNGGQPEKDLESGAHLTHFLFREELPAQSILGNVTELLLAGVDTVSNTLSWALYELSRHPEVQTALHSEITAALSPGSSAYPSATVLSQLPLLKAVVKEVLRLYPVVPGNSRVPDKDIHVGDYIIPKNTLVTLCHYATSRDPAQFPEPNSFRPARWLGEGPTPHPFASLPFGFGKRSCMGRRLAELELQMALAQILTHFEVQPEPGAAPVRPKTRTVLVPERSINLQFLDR
How it was run: as §1

DHRS13_C174 = biological target: T3, DHRS13_C174 (Homo sapiens, UniProt Q6UX07)
T3 construct: endogenous in cells; host or cells: 22Rv1
T3 sequence (Q6UX07 26-377): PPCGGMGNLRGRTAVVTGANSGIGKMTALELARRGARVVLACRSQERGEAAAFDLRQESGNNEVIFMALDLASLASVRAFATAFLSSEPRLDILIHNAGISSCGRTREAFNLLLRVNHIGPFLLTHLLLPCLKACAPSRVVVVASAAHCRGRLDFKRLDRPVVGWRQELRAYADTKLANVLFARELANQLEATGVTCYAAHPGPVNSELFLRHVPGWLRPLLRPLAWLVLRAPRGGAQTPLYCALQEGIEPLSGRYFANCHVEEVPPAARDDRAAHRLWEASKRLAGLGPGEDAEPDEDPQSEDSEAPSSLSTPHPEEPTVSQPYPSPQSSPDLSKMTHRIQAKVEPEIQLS
How it was run: as §1

PAFAH2_C72 = biological target: T4, PAFAH2_C72 (Homo sapiens, UniProt Q99487)
T4 construct: endogenous in cells; host or cells: 22Rv1
How it was run: as §1

Row | % engagement NSUN3_C298 (NSUN3_C298) [%] | % engagement CYP27B1_C163 (CYP27B1_C163) [%] | % engagement DHRS13_C174 (DHRS13_C174) [%] | % engagement PAFAH2_C72 (PAFAH2_C72) [%] | SMILES
1 | 83 | 100 | 61.75 | 81 | C=CC(=O)N1C[C@H](c2ccc(Br)cc2)[C@H]1C(=O)Nc1cccc2cccnc12 [MY-3B, (2S,3S)-1-acryloyl-3-(4-bromophenyl)-N-(quinolin-8-yl)azetidine-2-carboxamide]
2 | 55.5 | 89 | 69.75 | 61 | C=CC(=O)N1C[C@H](c2ccc(Br)cc2)[C@@H]1C(=O)Nc1cccc2cccnc12 [MY-1B, (2R,3S)-1-acryloyl-3-(4-bromophenyl)-N-(quinolin-8-yl)azetidine-2-carboxamide]
3 | 38 | 73.5 | 42 | 56.75 | C=CC(=O)N1C[C@H](c2ccc(Br)cc2)[C@H]1C(=O)Nc1cccc2cccnc12 [MY-3A, (2S,3S)-1-acryloyl-3-(4-bromophenyl)-N-(quinolin-8-yl)azetidine-2-carboxamide]
4 | 35.5 | 73 | 60.25 | 61.75 | C=CC(=O)N1C[C@@H](c2ccc(Br)cc2)[C@H]1C(=O)Nc1cccc2cccnc12 [MY-1A, (2S,3R)-1-acryloyl-3-(4-bromophenyl)-N-(quinolin-8-yl)azetidine-2-carboxamide]
